In US11629135B2 (JUBILANT PRODEL LLC, priority 2017, dated 2023):
Where two headings read alike, the source gives them in different places.

Experiments:
[1] = Intravenous and oral pharmacokinetics in mice; type: in vivo, Balb/c mice; conditions: for Vd: iv, 2 mg/kg; for half-life: read-out: t1/2, β (converted)
Description: Pharmacokinetics Evaluation of Compound-45: Animal Experiments Details
Institutional Animal Ethical Committee (IAEC) of Jubilant Biosys (IAEC/JDC/2018/158) nominated by CPCSEA (Committee for the Purpose of Control and Supervision of Experiments on Animals) approved the mice pharmacokinetic experiments. Male Balb/c mice (˜6-8 weeks old with body weight range of 22-25 g) were procured from Vivo Biotech, Hyderabad, India. Animals were quarantined in Jubilant Biosys Animal House for a period of 7 days with a 12:12 h light:dark cycles, and prior study the animals were stratified as per body weight. Animals had free access to feed (Altromin Spezialfutter GmbH & Co. KG., Im Seelenkamp 20, D-32791, Lage, Germany) and water ad-libitum.
Intravenous and oral pharmacokinetics study was done at a dose of 2 and 10 mg/kg and at a dose volume of 10 mL/kg. Serial blood samples (200 μL) were collected from retro-orbital plexus at 0.083 (Only for IV), 0.15, 0.5, 1, 2, 4, 8, 10 (only for PO) and 24 h. Blood samples collected in tubes containing K2.EDTA as anticoagulant and centrifuged for 5 min at 14000 rpm in a refrigerated centrifuge (Biofuge, Heraeus, Germany) maintained at 4° C. for plasma separation.
Group I (PO) (22-25 g) received compound-45 at 10 mg/Kg (suspension formulation prepared using 0.5% methylcellulose and Tween-80; dose volume: 10 mL/Kg), whereas group II received IV (24-25 g) received compound-45 intravenously [5% DMSO, 5% Solutol:absolute alcohol (1:1, v/v) and 90% of normal saline; strength: 0.2 mg/mL; dose volume: 10 mL/Kg] at 2.0 mg/Kg dose. Post-dosing serial blood samples (200 μL), sparse sampling was done and at each time point three mice were used for blood sampling) were collected at regular intervals using heparinized capillaries through retro-orbital plexus into polypropylene tubes containing K2.EDTA solution as an anti-coagulant. Animals were allowed to eat feed 2 h post dose of compound-45. Blood concentration-time data of compound-45 was analyzed by non-compartmental method using Phoenix WinNonlin Version 7.0.

[2] = Metabolic stability in liver microsomes (dog); type: in vitro ADME; conditions: dog liver microsomes 0.5 mg/mL, compound 1 μM, NADPH, up to 30 min
Description: Metabolic Stability in Liver Microsomes
Procedure: Potassium phosphate buffer (66.7 mM, pH 7.4) containing mouse or rat or dog or monkey or human liver microsomes (0.5 mg/mL) was pre-incubated separately with compound (1 μM) and positive control (verapamil, 1 μM) in a 37° C. water bath for 5 min. The reactions were initiated by adding 20 μL of 10 mM NADPH. Reactions without NADPH (0 and 30 min) were also incubated to rule out non-NADPH metabolism or chemical instability in the incubation buffer. All reactions were terminated using 200 μL of ice-cold acetonitrile containing internal standard at 0, 5, 15 and 30 min. The vials were centrifuged at 3000 rpm for 15 min. The reaction mixtures (obtained from the above studies) were extracted, processed and analyzed by LC-MS [Shimadzu SIL LC series (Kyoto, Japan) was coupled to an API-4000 Mass Spectrometer (MDS Sciex, Toronto, Canada)] to monitor the disappearance of compound.

CYP3A4 = biological target: T1, CYP3A4 (Homo sapiens, UniProt P08684); test: CYP inhibition in human liver microsomes (CYP3A4); type: in vitro ADME; conditions: hydroxylation of midazolam, read-out: predicted IC50, CYP 3A4
T1 construct: assessed in human liver microsomes (procured from GIBCO Invitrogen); tissue GIBCO Invitrogen; host or cells: human liver microsomes
Description: (§1) CYP inhibition potential of compound was assessed in human liver microsomes (procured from GIBCO Invitrogen) against CYP3A4, 2D6, 2C9, 2C19 and 1A2 in the following sequential steps. Standard reaction mixture (final volume 300 μL) contained […] potassium phosphate buffer (pH 7.4), protein (0.1, 0.25, 0.5, 0.5 and 0.5 mg/mL concentration for CYP3A4, 2D6, 2C9 2C19 and 1A2 respectively) and compound (at eight different concentration levels ranging from […], added as 0.9 μL DMSO solution with a final DMSO concentration of […]). The mixtures were pre-incubated at 37±1° C. for 5 min. The reaction (in duplicate) was initiated by addition of 30 μL of NADPH (10 mM). Reaction was terminated at 10 min by adding 300 μL of acetonitrile. The activity of liver microsomes was confirmed with positive controls i.e., monitoring the hydroxylation of midazolam for CYP 3A4, hydroxylation of bufuralol for CYP 2D6, hydroxylation of diclofenac for CYP 2C9, hydroxylation of omeprazole for CYP2C19 and O-Deethylation for CYP 1A2. The reaction mixtures (obtained from the above studies) were extracted, processed and analyzed by LC-MS [Shimadzu SIL LC series (Kyoto, Japan) was coupled to an API-4000 Mass Spectrometer (MDS Sciex, Toronto, Canada)].

CYP 2C9 = biological target: T2, CYP 2C9 (Homo sapiens, UniProt P11712); test: CYP inhibition in human liver microsomes (CYP2C9); type: in vitro ADME; conditions: hydroxylation of diclofenac, read-out: predicted IC50, CYP 2C9
T2 construct: assessed in human liver microsomes (procured from GIBCO Invitrogen); tissue GIBCO Invitrogen; host or cells: human liver microsomes
Description: as §1

CYP2C19 = biological target: T3, CYP2C19 (Homo sapiens, UniProt P33261); test: CYP inhibition in human liver microsomes (CYP2C19); type: in vitro ADME; conditions: hydroxylation of omeprazole (CYP2C19 per method), read-out: predicted IC50, hydroxylation of omeprazole
T3 construct: assessed in human liver microsomes (procured from GIBCO Invitrogen); tissue GIBCO Invitrogen; host or cells: human liver microsomes
Description: as §1

[3] = male, mouse, plasma, Balb C mice, IV dose of 2 mg/Kg
[4] = male, mouse, plasma, Balb C mice, oral dose of 10 mg/Kg

T2 sequence (P11712 whole entry): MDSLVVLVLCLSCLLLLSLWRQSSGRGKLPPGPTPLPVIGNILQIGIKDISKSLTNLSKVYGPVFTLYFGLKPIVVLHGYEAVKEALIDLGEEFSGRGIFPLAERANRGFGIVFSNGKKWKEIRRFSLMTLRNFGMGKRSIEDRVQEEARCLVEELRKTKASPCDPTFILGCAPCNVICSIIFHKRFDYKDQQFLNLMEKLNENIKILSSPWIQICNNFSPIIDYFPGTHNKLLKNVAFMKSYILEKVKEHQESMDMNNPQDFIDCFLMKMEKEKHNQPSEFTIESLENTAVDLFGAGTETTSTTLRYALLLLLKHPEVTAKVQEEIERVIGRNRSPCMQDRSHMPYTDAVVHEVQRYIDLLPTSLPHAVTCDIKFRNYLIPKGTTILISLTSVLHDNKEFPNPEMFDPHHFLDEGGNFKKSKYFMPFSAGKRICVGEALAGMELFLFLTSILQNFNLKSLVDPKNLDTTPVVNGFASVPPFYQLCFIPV
T3 sequence (P33261 whole entry): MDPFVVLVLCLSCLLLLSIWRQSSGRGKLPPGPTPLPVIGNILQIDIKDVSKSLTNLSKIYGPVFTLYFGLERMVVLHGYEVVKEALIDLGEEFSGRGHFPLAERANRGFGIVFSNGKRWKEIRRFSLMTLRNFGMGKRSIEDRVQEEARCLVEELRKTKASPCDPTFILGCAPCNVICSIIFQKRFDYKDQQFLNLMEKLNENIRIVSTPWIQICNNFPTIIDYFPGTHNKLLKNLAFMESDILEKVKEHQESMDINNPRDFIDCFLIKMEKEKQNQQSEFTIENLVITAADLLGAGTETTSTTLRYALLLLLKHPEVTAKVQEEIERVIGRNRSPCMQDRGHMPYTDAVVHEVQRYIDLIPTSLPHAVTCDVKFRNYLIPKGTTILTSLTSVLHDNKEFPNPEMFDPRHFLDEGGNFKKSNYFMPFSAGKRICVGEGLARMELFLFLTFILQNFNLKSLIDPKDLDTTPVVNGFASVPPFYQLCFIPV
T1 sequence (P08684 whole entry): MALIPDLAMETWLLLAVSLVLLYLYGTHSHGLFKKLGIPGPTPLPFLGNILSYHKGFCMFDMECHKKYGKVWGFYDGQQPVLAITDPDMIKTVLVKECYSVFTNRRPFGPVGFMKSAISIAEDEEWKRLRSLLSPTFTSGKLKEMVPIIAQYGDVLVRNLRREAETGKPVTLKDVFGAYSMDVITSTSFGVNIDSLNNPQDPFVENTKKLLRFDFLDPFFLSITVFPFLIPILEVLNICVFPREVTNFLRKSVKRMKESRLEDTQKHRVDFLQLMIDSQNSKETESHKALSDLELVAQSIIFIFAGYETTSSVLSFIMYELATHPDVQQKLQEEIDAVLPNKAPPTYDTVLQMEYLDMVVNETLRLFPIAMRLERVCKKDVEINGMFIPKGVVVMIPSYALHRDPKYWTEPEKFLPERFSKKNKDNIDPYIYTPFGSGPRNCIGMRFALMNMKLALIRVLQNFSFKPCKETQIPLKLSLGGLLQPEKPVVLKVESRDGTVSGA

COc1nc(OCc2cccc(-c3ccccc3)c2C)nc(OC)c1CN1CCCC[C@H]1C(=O)O [Compound 45, (S)-1-((4,6-dimethoxy-2-((2-methyl-[1,1′-biphenyl]-3-yl)methoxy)pyrimidin-5-yl)methyl)piperidine-2-carboxylic acid]
Tlast ([1]; Balb C mice, IV dose of 2 mg/Kg): 8.00 h
Tlast ([1]; Balb C mice, oral dose of 10 mg/Kg): 24.0 h
Oral bioavailability (F %) ([1]; Balb C mice, oral dose of 10 mg/Kg, 10 mg/kg): 90.6%
Vd ([1]; male, Balb/c, mouse, plasma, Balb C mice, IV dose of 2 mg/Kg, read-out: Vd): 0.74 L/kg
Vd ([1]; male, Balb/c, mouse, plasma, Balb C mice, IV dose of 2 mg/Kg, read-out: Vdss): 1.2 L/kg
bioavailability ([1]; male, Balb/c, mouse, plasma, po, 10 mg/kg, Balb C mice, oral dose of 10 mg/Kg, read-out: Oral bioavailability (F %)): 91%
AUC(0-inf) [1, 3]: 4920 ng·h/mL
AUC(0-t) [1, 3]: 4480 ng·h/mL
Cmax [1, 3]: 2110 ng/mL
clearance [1, 3]: 6.77 mL/min/kg
C0 ([1]; male, mouse, plasma, Balb C mice, IV dose of 2 mg/Kg, extrapolated, calculated manually using initial 3 time points): 2130 ng/mL
half-life [1, 3]: 1.27 h
AUC(0-inf) [1, 4]: 21100 ng·h/mL
AUC(0-t) [1, 4]: 20300 ng·h/mL
Cmax [1, 4]: 4840 ng/mL
Tmax [1, 4]: 0.5 h
half-life [1, 4]: 6.32 h
clearance as share of hepatic blood flow (HBF) ([1]; mice, intravenous): 8 % hepatic blood flow
volume of distribution relative to total body water (TBW) ([1]; mice, intravenous): 40 times
Metabolic stability in liver microsomes [2]: > 80%
IC50 (CYP3A4): > 10 µM
IC50 (CYP 2C9): > 10 µM
IC50 (CYP2C19): > 10 µM
